Laboratory results reported in PubChem BioAssay AID2060512 (Molecular Pharmacology Branch, DTP, NCI, 2025).

System: 186277-243-T-J2-PDC complex spheroid viability
Test: Anticancer human tumor 186277-243-T-J2-PDC patient-derived colon adenocarcinoma cell line growth inhibition [GQUAD]
Conditions: for IC50: curve of first compound; for viability, T/C: stronger effect = lower value
How it was run: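 Viability of tumor cells grown as complex spheroids with endothelial and stromal cells, exposed to drug combinations. Top concentration at or near clinical Cmax (else 10 microM), diluted in half-log increments.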

[1] = second compound 0.0316 µM, first compound 0.0316 µM
[2] = second compound 0.0316 µM, first compound 0.1 µM
[3] = second compound 0.0316 µM, first compound 0.316 µM
[4] = second compound 0.0316 µM, first compound 1 µM
[5] = second compound 0.0316 µM, first compound 3.16 µM
[6] = second compound 0.0316 µM, first compound 10 µM
[7] = second compound 0.1 µM, first compound 0.0316 µM
[8] = second compound 0.1 µM, first compound 0.1 µM
[9] = second compound 0.1 µM, first compound 0.316 µM
[10] = second compound 0.1 µM, first compound 1 µM
[11] = second compound 0.1 µM, first compound 3.16 µM
[12] = second compound 0.1 µM, first compound 10 µM
[13] = second compound 0.316 µM, first compound 0.0316 µM
[14] = second compound 0.316 µM, first compound 0.1 µM
[15] = second compound 0.316 µM, first compound 0.316 µM
[16] = second compound 0.316 µM, first compound 1 µM
[17] = second compound 0.316 µM, first compound 3.16 µM
[18] = second compound 0.316 µM, first compound 10 µM
[19] = second compound 1 µM, first compound 0.0316 µM
[20] = second compound 1 µM, first compound 0.1 µM
[21] = second compound 1 µM, first compound 0.316 µM
[22] = second compound 1 µM, first compound 1 µM
[23] = second compound 1 µM, first compound 3.16 µM
[24] = second compound 1 µM, first compound 10 µM
[25] = second compound 3.16 µM, first compound 0.0316 µM
[26] = second compound 3.16 µM, first compound 0.1 µM
[27] = second compound 3.16 µM, first compound 0.316 µM
[28] = second compound 3.16 µM, first compound 1 µM
[29] = second compound 3.16 µM, first compound 3.16 µM
[30] = second compound 3.16 µM, first compound 10 µM
[31] = second compound 10 µM, first compound 0.0316 µM
[32] = second compound 10 µM, first compound 0.1 µM
[33] = second compound 10 µM, first compound 0.316 µM
[34] = second compound 10 µM, first compound 1 µM
[35] = second compound 10 µM, first compound 3.16 µM
[36] = second compound 10 µM, first compound 10 µM
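Throughout, for viability, T/C: 100% = DMSO vehicle control viability.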

In the case of C#Cc1c(F)ccc2cc(O)cc(-c3ncc4c(N5CC6CCC(C5)N6)nc(OCC56CCCN5CC(F)C6)nc4c3F)c12 (stereo unspecified) + CN(C)c1ccc(Nc2c3ccc(NC(=O)CCN4CCCC4)cc3nc3cc(NC(=O)CCN4CCCC4)ccc23)cc1, the IC50 (second compound 0.0316 µM) is reported as 89.9 nM, the IC50 (second compound 0.1 µM) is reported as 83.6 nM and the IC50 (second compound 0.316 µM) is reported as 99.7 nM. For the same compound, the IC50 (second compound 1 µM) was 84.2 nM, the IC50 (second compound 3.16 µM) was 135 nM and the IC50 (second compound 10 µM) was 77 nM. For the same compound, the viability, T/C [1] was 82%, the viability, T/C [2] was 47.4% and the viability, T/C [3] was 21.6%. The viability, T/C [4] was 16.9%, the viability, T/C [5] was 6.89% and the viability, T/C [6] was 7.82%. For the same compound, the viability, T/C [7] was 74.2%, the viability, T/C [8] was 45.7% and the viability, T/C [9] was 18.7%. For the same compound, the viability, T/C [10] was 11.1%, the viability, T/C [11] was 6.45% and the viability, T/C [12] was 7.02%. The viability, T/C [13] was 77%, the viability, T/C [14] was 50.4% and the viability, T/C [15] was 19.8%. For the same compound, the viability, T/C [16] was 14.4%, the viability, T/C [17] was 8.31% and the viability, T/C [18] was 7.51%. For the same compound, the viability, T/C [19] was 74.6%, the viability, T/C [20] was 46.6% and the viability, T/C [21] was 21.3%. The viability, T/C [22] was 16.1%, the viability, T/C [23] was 14.3% and the viability, T/C [24] was 6.27%. For the same compound, the viability, T/C [25] was 73.9%, the viability, T/C [26] was 59.6% and the viability, T/C [27] was 22.9%. It also gave a viability, T/C [28] of 8.92%, a viability, T/C [29] of 8.54% and a viability, T/C [30] of 5.1%. The viability, T/C [31] was 74.3%, the viability, T/C [32] was 42.1% and the viability, T/C [33] was 24.2%. The viability, T/C [34] was 12.5%, the viability, T/C [35] was 6.96% and the viability, T/C [36] was 1.49%.
Work on CC(=O)O[C@H]1C(=O)[C@@]2(C)[C@H]([C@H](OC(=O)c3ccccc3)[C@]3(O)C[C@H](OC(=O)[C@H](O)[C@@H](NC(=O)c4ccccc4)c4ccccc4)C(C)=C1C3(C)C)[C@]1(OC(C)=O)CO[C@@H]1C[C@@H]2O + CN(C)c1ccc(Nc2c3ccc(NC(=O)CCN4CCCC4)cc3nc3cc(NC(=O)CCN4CCCC4)ccc23)cc1 yielded an IC50 (second compound 0.0316 µM) of less than 31.6 nM, an IC50 (second compound 0.1 µM) of less than 31.6 nM and an IC50 (second compound 0.316 µM) of less than 31.6 nM. For the same compound, the IC50 (second compound 1 µM) was less than 31.6 nM, the IC50 (second compound 3.16 µM) was less than 31.6 nM and the IC50 (second compound 10 µM) was less than 31.6 nM. For the same compound, the viability, T/C [1] was 19.8%, the viability, T/C [2] was 6.1% and the viability, T/C [3] was 5.38%. For the same compound, the viability, T/C [4] was 3.55%, the viability, T/C [5] was 3.54% and the viability, T/C [6] was 3.9%. For the same compound, the viability, T/C [7] was 18.9%, the viability, T/C [8] was 7.57% and the viability, T/C [9] was 4.53%. The viability, T/C [10] was 3.24%, the viability, T/C [11] was 4.81% and the viability, T/C [12] was 4.04%. The viability, T/C [13] was 20.1%, the viability, T/C [14] was 7.12% and the viability, T/C [15] was 4.2%. The viability, T/C [16] was 4.04%, the viability, T/C [17] was 4.15% and the viability, T/C [18] was 3.98%. It also gave a viability, T/C [19] of 11.8%, a viability, T/C [20] of 7.8% and a viability, T/C [21] of 5.59%. For the same compound, the viability, T/C [22] was 3.93%, the viability, T/C [23] was 4.16% and the viability, T/C [24] was 4.31%. The viability, T/C [25] was 19.9%, the viability, T/C [26] was 6.16% and the viability, T/C [27] was 3.9%. The viability, T/C [28] was 4.93%, the viability, T/C [29] was 4.08% and the viability, T/C [30] was 4.24%. It also gave a viability, T/C [31] of 19.5%, a viability, T/C [32] of 6.64% and a viability, T/C [33] of 3.63%. The viability, T/C [34] was 3.44%, the viability, T/C [35] was 2.96% and the viability, T/C [36] was 2.41%.
Compound CCCS(=O)(=O)Nc1ccc(F)c(C(=O)c2c[nH]c3ncc(-c4ccc(Cl)cc4)cc23)c1F + CN(C)c1ccc(Nc2c3ccc(NC(=O)CCN4CCCC4)cc3nc3cc(NC(=O)CCN4CCCC4)ccc23)cc1 has an IC50 (second compound 0.0316 µM) of 5890 nM, an IC50 (second compound 0.1 µM) of 6440 nM and an IC50 (second compound 0.316 µM) of 6240 nM. The IC50 (second compound 1 µM) was 6270 nM, the IC50 (second compound 3.16 µM) was 6280 nM and the IC50 (second compound 10 µM) was 5820 nM. The viability, T/C [1] was 97.2%, the viability, T/C [2] was 101% and the viability, T/C [3] was 90.2%. For the same compound, the viability, T/C [4] was 78.8%, the viability, T/C [5] was 77.9% and the viability, T/C [6] was 30.3%. For the same compound, the viability, T/C [7] was 95.2%, the viability, T/C [8] was 81.4% and the viability, T/C [9] was 83.6%. For the same compound, the viability, T/C [10] was 84.6%, the viability, T/C [11] was 95.8% and the viability, T/C [12] was 26.2%. The viability, T/C [13] was 89.1%, the viability, T/C [14] was 102% and the viability, T/C [15] was 86.3%. The viability, T/C [16] was 87%, the viability, T/C [17] was 82.7% and the viability, T/C [18] was 27.7%. For the same compound, the viability, T/C [19] was 90.3%, the viability, T/C [20] was 93.1% and the viability, T/C [21] was 84.4%. The viability, T/C [22] was 98.9%, the viability, T/C [23] was 83% and the viability, T/C [24] was 26.7%. For the same compound, the viability, T/C [25] was 92.2%, the viability, T/C [26] was 105% and the viability, T/C [27] was 86.5%. For the same compound, the viability, T/C [28] was 90.4%, the viability, T/C [29] was 82.5% and the viability, T/C [30] was 28.4%. For the same compound, the viability, T/C [31] was 96.9%, the viability, T/C [32] was 91.1% and the viability, T/C [33] was 97.9%. The viability, T/C [34] was 87.7%, the viability, T/C [35] was 82.3% and the viability, T/C [36] was 22%.
